Source: patent publication US20240300976A1, “COMPOUNDS AS MODULATORS OF ENDOPLASMIC RETICULUM AMINOPEPTIDASE 1 (ERAP1)” (GREY WOLF THERAPEUTICS LIMITED, priority 2020, published 2024)
pIC50: −log10 of the molar value.

What follows are compounds tested against T1, ERAP1 (Homo sapiens, UniProt Q9NZ08) (assay: ERAP1 mediated hydrolysis of an amide substrate (10-mer inhibition assay), biochemical system). Conditions: 10-mer substrate, incubated at 23° C. for 1 h, excitation 279 nm and emission 355 nm; read-out: IC50 vs Decapeptide WRVYEKC(Dnp)ALK-acid (where Dnp is Dinitrophenyl maleimide) (10-mer).
T1 construct: Purified ERAP1(37-941)-10His (ERAP1); 10His (C)
T1 sequence (Q9NZ08 37-941): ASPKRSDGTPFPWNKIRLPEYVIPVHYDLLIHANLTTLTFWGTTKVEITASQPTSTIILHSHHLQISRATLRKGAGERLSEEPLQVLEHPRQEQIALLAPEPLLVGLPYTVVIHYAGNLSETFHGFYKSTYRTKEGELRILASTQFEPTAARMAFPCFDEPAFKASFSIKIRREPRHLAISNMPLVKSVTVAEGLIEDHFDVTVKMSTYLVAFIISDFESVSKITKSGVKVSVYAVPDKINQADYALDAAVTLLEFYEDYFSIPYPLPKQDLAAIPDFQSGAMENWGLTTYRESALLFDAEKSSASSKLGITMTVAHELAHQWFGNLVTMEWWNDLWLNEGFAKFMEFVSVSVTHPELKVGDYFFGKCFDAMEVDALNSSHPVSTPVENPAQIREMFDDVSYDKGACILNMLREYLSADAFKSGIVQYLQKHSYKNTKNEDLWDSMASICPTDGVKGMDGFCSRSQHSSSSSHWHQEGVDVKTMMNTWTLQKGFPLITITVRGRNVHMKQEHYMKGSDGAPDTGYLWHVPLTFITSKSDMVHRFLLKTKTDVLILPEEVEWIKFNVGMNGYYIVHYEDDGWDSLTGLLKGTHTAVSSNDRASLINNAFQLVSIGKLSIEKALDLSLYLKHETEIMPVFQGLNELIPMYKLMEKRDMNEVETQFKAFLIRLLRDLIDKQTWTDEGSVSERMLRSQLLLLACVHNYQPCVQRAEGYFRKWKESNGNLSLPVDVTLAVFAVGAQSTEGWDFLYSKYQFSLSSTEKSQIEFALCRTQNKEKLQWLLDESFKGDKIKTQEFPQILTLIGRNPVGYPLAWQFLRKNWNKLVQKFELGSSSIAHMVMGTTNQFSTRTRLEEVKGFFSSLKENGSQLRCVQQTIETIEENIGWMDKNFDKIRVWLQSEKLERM
Source text: This peptide has minimal fluorescence as the N-terminal tryptophan residue's fluorescence is quenched by the dinitrophenol (DNP) residue within the peptide. However, as ERAP1 hydrolyses the N-terminal amide bond and tryptophan is released this internal quenching is lost and the reaction is monitored by the increase in tryptophan fluorescence over the course of the assay. For the purposes of this application this assay is referred to as the “1 Omer inhibition assay” and compound potencies are calculated and expressed as 1050 as would be familiar to a person skilled in the art.
Biological Assay 1: ERAP1 Mediated Hydrolysis of an Amide Substrate Measured in a Biochemical System
• 1× Assay buffer (AB): 25 mM Bis-tris propane, 0.05% w/v Hydroxypropylmethylcellulose pH 7.75 made with Optima grade water • Decapeptide WRVYEKC(Dnp)ALK-acid (where Dnp is Dinitrophenyl maleimide) (10-mer) • L-Leucine 7-amido-4-methylcoumarin (L-AMC) • Purified ERAP1(37-941)-10His (ERAP1)
12.5 μL ERAP1 enzyme in 1×AB was combined with 250 nL test compound in DMSO. 12.5 μL of either 240 μM L-AMC in 1×AB or 100 μM 10-mer in 1×AB was added to the reaction and incubated at 23° C. for 1 h. For detection, plates were read at excitation 365 nm and emission 442 nm (L-AMC) or excitation 279 nm and emission 355 nm (10-mer). Compound IC50 was determined using a 4-parameter equation.

Row | pIC50 | Compound
1 | > 6.60 | N#Cc1ccc2c(c1)NS(=O)(=O)c1cc(C(=O)O)ccc1OCCCC1CCCCN21 (single isomer, unassigned) [Example 8, 2-cyano-6,7,8,9,9a,10,11,12-octahydro-19H-dibenzo[b,f]pyrido[1,2-h][1]oxa[4]thia[5,8]diazacyclododecine-16-carboxylic acid 18,18-dioxide]
2 | > 6.60 | N#Cc1ccc2c(c1)NS(=O)(=O)c1cc(C(=O)O)ccc1OCCCC1CCCCN21 (single isomer, unassigned) [Example 9, 2-cyano-6,7,8,9,9a,10,11,12-octahydro-19H-dibenzo[b,f]pyrido[1,2-h][1]oxa[4]thia[5,8]diazacyclododecine-16-carboxylic acid 18,18-dioxide]
3 | > 6.60 | N#Cc1ccc2c(c1)NS(=O)(=O)c1cc(C(=O)O)ccc1OCC1CCCCN21 (single isomer, unassigned) [Example 10, 8-cyano-12,13,14,15,15a,16-hexahydro-6H-dibenzo[b,f]pyrido[1,2-h][1,4,5,8]oxathiadiazecine-3-carboxylic acid 5,5-dioxide]
4 | 6.00 to 6.60 | N#Cc1ccc2c(c1)NS(=O)(=O)c1cc(C(=O)O)ccc1OCC1CCCCN21 (single isomer, unassigned) [Example 11, 8-cyano-12,13,14,15,15a,16-hexahydro-6H-dibenzo[b,f]pyrido[1,2-h][1,4,5,8]oxathiadiazecine-3-carboxylic acid 5,5-dioxide]
5 | 6.00 to 6.60 | N#Cc1ccc2c(c1)NS(=O)(=O)c1cc(C(=O)O)ccc1OCCCCC1CCCCN21 (single isomer, unassigned) [Example 12, 2-cyano-7,8,9,9a,10,11,12,13-octahydro-6H,20H-dibenzo[b,f]pyrido[1,2-h][1]oxa[4]thia[5,8]diazacyclotridecine-17-carboxylic acid 19,19-dioxide]
6 | > 6.60 | N#Cc1ccc2c(c1)NS(=O)(=O)c1cc(C(=O)O)ccc1OCCCCC1CCCCN21 (single isomer, unassigned) [Example 13, 2-cyano-7,8,9,9a,10,11,12,13-octahydro-6H,20H-dibenzo[b,f]pyrido[1,2-h][1]oxa[4]thia[5,8]diazacyclotridecine-17-carboxylic acid 19,19-dioxide]
7 | < 6.00 | N#Cc1cc2c(cc1Cl)N1CCCCC1COc1ccc(C(=O)O)cc1S(=O)(=O)N2 (single isomer, unassigned) [Example 16, 9-chloro-8-cyano-12,13,14,15,15a,16-hexahydro-6H-dibenzo[b,f]pyrido[1,2-h][1,4,5,8]oxathiadiazecine-3-carboxylic acid 5,5-dioxide]
8 | > 6.60 | N#Cc1cc2c(cc1Cl)N1CCCCC1COc1ccc(C(=O)O)cc1S(=O)(=O)N2 (single isomer, unassigned) [Example 17, 9-chloro-8-cyano-12,13,14,15,15a,16-hexahydro-6H-dibenzo[b,f]pyrido[1,2-h][1,4,5,8]oxathiadiazecine-3-carboxylic acid 5,5-dioxide]
9 | > 6.60 | CS(=O)(=O)c1ccc2c(c1)NS(=O)(=O)c1cc(C(=O)O)ccc1OCC1CCCCN21 (single isomer, unassigned) [Example 19, 8-(methylsulfonyl)-12,13,14,15,15a,16-hexahydro-6H-dibenzo[b,f]pyrido[1,2-h][1,4,5,8]oxathiadiazecine-3-carboxylic acid 5,5-dioxide]
10 | < 6.00 | CS(=O)(=O)c1ccc2c(c1)NS(=O)(=O)c1cc(C(=O)O)ccc1OCC1CCCCN21 (single isomer, unassigned) [Example 20, 8-(methylsulfonyl)-12,13,14,15,15a,16-hexahydro-6H-dibenzo[b,f]pyrido[1,2-h][1,4,5,8]oxathiadiazecine-3-carboxylic acid 5,5-dioxide]
11 | > 6.60 | N#Cc1cc2c(cc1Cl)N1CCCCC1CCCCOc1ccc(C(=O)O)cc1S(=O)(=O)N2 (single isomer, unassigned) [Example 26, 3-chloro-2-cyano-7,8,9,9a,10,11,12,13-octahydro-6H, 20H-dibenzo[b,f]pyrido[1,2-h][1]oxa[4]thia[5,8]diazacyclotridecine-17-carboxylic acid 19,19-dioxide]
12 | > 6.60 | N#Cc1cc2c(cc1Cl)N1CCCCC1CCCCOc1ccc(C(=O)O)cc1S(=O)(=O)N2 (single isomer, unassigned) [Example 27, 3-chloro-2-cyano-7,8,9,9a,10,11,12,13-octahydro-6H, 20H-dibenzo[b,f]pyrido[1,2-h][1]oxa[4]thia[5,8]diazacyclotridecine-17-carboxylic acid 19,19-dioxide]
13 | > 6.60 | N#Cc1ccc2c(c1)NS(=O)(=O)c1cc(C(=O)O)ccc1OC/C=C/CC1CCCCN21 (single isomer, unassigned) [Example 32, (E)-2-cyano-7,8,9,9a,10,13-hexahydro-6H, 20H-dibenzo[b,f]pyrido[1,2-h][1]oxa[4]thia[5,8]diazacyclotridecine-17-carboxylic acid 19,19-dioxide]
14 | < 6.00 | N#Cc1ccc2c(c1)NS(=O)(=O)c1cc(C(=O)O)ccc1OC/C=C/CC1CCCCN21 (single isomer, unassigned) [Example 33, (E)-2-cyano-7,8,9,9a,10,13-hexahydro-6H, 20H-dibenzo[b,f]pyrido[1,2-h][1]oxa[4]thia[5,8]diazacyclotridecine-17-carboxylic acid 19,19-dioxide]
15 | < 6.00 | N#Cc1cc2c(cc1F)N1CCCCC1COc1ccc(C(=O)O)cc1S(=O)(=O)N2 (single isomer, unassigned) [Example 37, 8-cyano-9-fluoro-12,13,14,15,15a,16-hexahydro-6H-dibenzo[b,f]pyrido[1,2-h][1,4,5,8]oxathiadiazecine-3-carboxylic acid 5,5-dioxide]
16 | > 6.60 | N#Cc1cc2c(cc1F)N1CCCCC1COc1ccc(C(=O)O)cc1S(=O)(=O)N2 (single isomer, unassigned) [Example 38, 8-cyano-9-fluoro-12,13,14,15,15a,16-hexahydro-6H-dibenzo[b,f]pyrido[1,2-h][1,4,5,8]oxathiadiazecine-3-carboxylic acid 5,5-dioxide]
17 | > 6.60 | CS(=O)(=O)c1cc2c(cc1F)N1CCCCC1COc1ccc(C(=O)O)cc1S(=O)(=O)N2 (single isomer, unassigned) [Example 39, 9-fluoro-8-(methylsulfonyl)-12,13,14,15,15a,16-hexahydro-6H-dibenzo[b,f]pyrido[1,2-h][1,4,5,8]oxathiadiazecine-3-carboxylic acid 5,5-dioxide]
18 | < 6.00 | CS(=O)(=O)c1cc2c(cc1F)N1CCCCC1COc1ccc(C(=O)O)cc1S(=O)(=O)N2 (single isomer, unassigned) [Example 40, 9-fluoro-8-(methylsulfonyl)-12,13,14,15,15a,16-hexahydro-6H-dibenzo[b,f]pyrido[1,2-h][1,4,5,8]oxathiadiazecine-3-carboxylic acid 5,5-dioxide]
19 | > 6.60 | N#Cc1cc2c(cc1F)N1CCCCC1CCCOc1ccc(C(=O)O)cc1S(=O)(=O)N2 (single isomer, unassigned) [Example 41, 2-cyano-3-fluoro-6,7,8,9,9a,10,11,12-octahydro-19H-dibenzo[b,f]pyrido[1,2-h][1]oxa[4]thia[5,8]diazacyclododecine-16-carboxylic acid 18,18-dioxide]
20 | > 6.60 | N#Cc1cc2c(cc1F)N1CCCCC1CCCOc1ccc(C(=O)O)cc1S(=O)(=O)N2 (single isomer, unassigned) [Example 42, 2-cyano-3-fluoro-6,7,8,9,9a,10,11,12-octahydro-19H-dibenzo[b,f]pyrido[1,2-h][1]oxa[4]thia[5,8]diazacyclododecine-16-carboxylic acid 18,18-dioxide]
21 | > 6.60 | CS(=O)(=O)c1cc2c(cc1F)N1CCCCC1CCCCOc1ccc(C(=O)O)cc1S(=O)(=O)N2 (single isomer, unassigned) [Example 43, 3-fluoro-2-(methylsulfonyl)-7,8,9,9a,10,11,12,13-octahydro-6H, 20H-dibenzo[b,f]pyrido[1,2-h][1]oxa[4]thia[5,8]diazacyclotridecine-17-carboxylic acid 19,19-dioxide]
22 | 6.00 to 6.60 | CS(=O)(=O)c1cc2c(cc1F)N1CCCCC1CCCCOc1ccc(C(=O)O)cc1S(=O)(=O)N2 (single isomer, unassigned) [Example 44, 3-fluoro-2-(methylsulfonyl)-7,8,9,9a,10,11,12,13-octahydro-6H, 20H-dibenzo[b,f]pyrido[1,2-h][1]oxa[4]thia[5,8]diazacyclotridecine-17-carboxylic acid 19,19-dioxide]
23 | > 6.60 | N#Cc1cc2c(cc1Cl)N1CCCCC1C/C=C/COc1ccc(C(=O)O)cc1S(=O)(=O)N2 (single isomer, unassigned) [Example 45, (E)-3-chloro-2-cyano-7,8,9,9a,10,13-hexahydro-6H, 20H-dibenzo[b,f]pyrido[1,2-h][1]oxa[4]thia[5,8]diazacyclotridecine-17-carboxylic acid 19,19-dioxide]
